Each compound was assayed against T1, human full-length MKNK1 (Homo sapiens, UniProt Q9BUB5, T385D) (assay: MKNK1 kinase high ATP assay (TR-FRET)). Details: not given.
T1 construct: GST (N); purchased Carna Biosciences 02-145; host or cells: insect cells (baculovirus expression system)
T1 sequence (Q9BUB5 1-424 isoform Q9BUB5-2 T344D): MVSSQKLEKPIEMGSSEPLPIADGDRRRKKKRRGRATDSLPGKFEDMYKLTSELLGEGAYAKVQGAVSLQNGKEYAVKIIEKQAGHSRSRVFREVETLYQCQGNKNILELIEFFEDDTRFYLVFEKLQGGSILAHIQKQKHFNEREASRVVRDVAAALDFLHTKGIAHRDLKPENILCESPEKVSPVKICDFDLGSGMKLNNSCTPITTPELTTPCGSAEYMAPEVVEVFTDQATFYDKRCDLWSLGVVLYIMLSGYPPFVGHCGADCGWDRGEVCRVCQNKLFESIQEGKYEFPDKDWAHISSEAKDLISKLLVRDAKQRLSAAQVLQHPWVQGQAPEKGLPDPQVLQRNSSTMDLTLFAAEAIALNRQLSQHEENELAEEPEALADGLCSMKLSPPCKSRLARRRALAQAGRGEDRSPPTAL
Format: biochemical
Method: MKNK1 Kinase High ATP Assay
MKNK1-inhibitory activity at high ATP of compounds of the present invention after their preincubation with MKNK1 was quantified employing the TR-FRET-based MKNK1 high ATP assay as described in the following paragraphs.
As substrate for the kinase reaction the biotinylated peptide biotin-Ahx-[…] (C-terminus in amide form) was used, which can be purchased e.g. from the company Biosyntan (Berlin-Buch, Germany).
For the assay 50 nL of a 100 fold concentrated solution of the test compound in DMSO was pipetted into a black low volume 384 well microtiter plate (Greiner Bio-One, Frickenhausen, Germany), 2 μL of a solution of MKNK1 in aqueous assay buffer [50 mM HEPES pH 7.5, 5 mM MgCl2, 1.0 mM dithiothreitol, 0.005% (v/v) Nonidet-P40 (Sigma)] was added and the mixture was incubated for 15 min at 22° C. to allow pre-binding of the test compounds to the enzyme before the start of the kinase reaction. Then the kinase reaction was started by the addition of 3 μL of a solution of adenosine-tri-phosphate (ATP, 3.3 mM=>final conc. in the 5 μL assay volume is 2 mM) and substrate (0.1 μM=>final conc. in the 5 μL assay volume is 0.06 μM) in assay buffer and the resulting mixture was incubated for a reaction time of 30 min at 22° C. The concentration of MKNK1 was adjusted depending of the activity of the enzyme lot and was chosen appropriate to have the assay in the linear range, typical concentrations were in the range of 0.003 μg/mL. The reaction was stopped by the addition of 5 μL of a solution of TR-FRET detection reagents (5 nM streptavidine-XL665 [Cisbio Bioassays, Codolet, France] and 1 nM anti-ribosomal protein S6 (pSer236)-antibody from Invitrogen [#44921G] and 1 nM LANCE EU-W1024 labeled ProteinG [Perkin-Elmer, product no. AD0071]) in an aqueous EDTA-solution (100 mM EDTA, 0.1% (w/v) bovine serum albumin in 50 mM HEPES pH 7.5).
The resulting mixture was incubated for 1 h at 22° C. to allow the formation of complex between the phosphorylated biotinylated peptide and the detection reagents. Subsequently the amount of phosphorylated substrate was evaluated by measurement of the resonance energy transfer from the Eu-chelate to the streptavidine-XL. Therefore, the fluorescence emissions at 620 nm and 665 nm after excitation at 350 nm were measured in a TR-FRET reader, e.g. a Rubystar (BMG Labtechnologies, Offenburg, Germany) or a Viewlux (Perkin-Elmer). The ratio of the emissions at 665 nm and at 622 nm was taken as the measure for the amount of phosphorylated substrate.
In the case of `Cc1cc(Nc2ncnc3sc4c(c23)CC[C@H](C(=O)N2CCC(=O)CC2)C4)c(=O)n2c1C(=O)NC21CCCCC1` [Example 10, 8′-Methyl-6′-({(7S)-7-[(4-oxopiperidin-1-yl)carbonyl]-5,6,7,8-tetrahydro[1]benzothieno[2,3-d]pyrimidin-4-yl}amino)-2′H-spiro[cyclohexane-1,3′-imidazo[1,5-a]pyridine]-1′,5′-dione], the IC50 is reported as 0.3 nM.

Same assay, conditions: TR-FRET, 2 mM ATP (high ATP), 15 min preincubation with enzyme, 30 min reaction at 22° C.; read-out: MKNK1 IC50
With `Cc1cc(Nc2ncnc3sc4c(c23)CC[C@H](C(=O)O)C4)c(=O)n2c1C(=O)NC21CCCCC1` [Example 1, (7S)-4-[(8′-Methyl-1′,5′-dioxo-1′,5′-dihydro-2′H-spiro[cyclohexane-1,3′-imidazo[1,5-a]pyridin]-6′-yl)amino]-5,6,7,8-tetrahydro[1]benzothieno[2,3-d]pyrimidine-7-carboxylic acid] the IC50 was 9 nM.
Compound `Cc1cc(Nc2ncnc3sc4c(c23)CC[C@H](C(=O)N(C)C)C4)c(=O)n2c1C(=O)NC21CCCCC1` [Example 2, (7S)—N, N-Dimethyl-4-[(8′-methyl-1′,5′-dioxo-1′,5′-dihydro-2′H-spiro[cyclohexane-1,3′-imidazo[1,5-a]pyridin]-6′-yl)amino]-5,6,7,8-tetrahydro[1]benzothieno[2,3-d]pyrimidine-7-carboxamide] has an IC50 of 0.2 nM.
In the case of `Cc1cc(Nc2ncnc3sc4c(c23)CC[C@H](C(=O)N2CCC2)C4)c(=O)n2c1C(=O)NC21CCCCC1` [Example 3, 6′-{[(7S)-7-(Azetidin-1-ylcarbonyl)-5,6,7,8-tetrahydro[1]benzothieno[2,3-d]pyrimidin-4-yl]amino}-8′-methyl-2′H-spiro[cyclohexane-1,3′-imidazo[1,5-a]pyridine]-1′,5′-dione], the IC50 is reported as 0.3 nM.
`CNC(=O)[C@H]1CCc2c(sc3ncnc(Nc4cc(C)c5n(c4=O)C4(CCCCC4)NC5=O)c23)C1` [Example 4, (7S)—N-Methyl-4-[(8′-methyl-1′,5′-dioxo-1′,5′-dihydro-2′H-spiro[cyclohexane-1,3′-imidazo[1,5-a]pyridin]-6′-yl)amino]-5,6,7,8-tetrahydro[1]benzothieno[2,3-d]pyrimidine-7-carboxamide] was tested, and the IC50 was 0.4 nM.
With `Cc1cc(Nc2ncnc3sc4c(c23)CC[C@H](C(=O)N2CC(C#N)C2)C4)c(=O)n2c1C(=O)NC21CCCCC1` [Example 5, 1-({(7S)-4-[(8′-Methyl-1′,5′-dioxo-1′,5′-dihydro-2′H-spiro[cyclohexane-1,3′-imidazo[1,5-a]pyridin]-6′-yl)amino]-5,6,7,8-tetrahydro[1]benzothieno[2,3-d]pyrimidin-7-yl}carbonyl)azetidine-3-carbonitrile] the IC50 was 1.1 nM.
For `Cc1cc(Nc2ncnc3sc4c(c23)CC[C@H](C(=O)N2CC(C)(O)C2)C4)c(=O)n2c1C(=O)NC21CCCCC1` [Example 6, 6′-({(7S)-7-[(3-Hydroxy-3-methylazetidin-1-yl)carbonyl]-5,6,7,8-tetrahydro[1]benzothieno[2,3-d]pyrimidin-4-yl}amino)-8′-methyl-2′H-spiro[cyclohexane-1,3′-imidazo[1,5-a]pyridine]-1′,5′-dione], the IC50 was 1.5 nM.
`Cc1cc(Nc2ncnc3sc4c(c23)CC[C@H](C(=O)N2CC(NC(=O)OC(C)(C)C)C2)C4)c(=O)n2c1C(=O)NC21CCCCC1` [Example 7, tert-Butyl [1-({(7S)-4-[(8′-methyl-1′,5′-dioxo-1′,5′-dihydro-2′H-spiro[cyclohexane-1,3′-imidazo[1,5-a]pyridin]-6′-yl)amino]-5,6,7,8-tetrahydro[1]benzothieno[2,3-d]pyrimidin-7-yl}carbonyl)azetidin-3-yl]carbamate] was tested, and the IC50 was 4.2 nM.
With `Cc1cc(Nc2ncnc3sc4c(c23)CC[C@H](C(=O)N2C[C@H]3C[C@@H]2CO3)C4)c(=O)n2c1C(=O)NC21CCCCC1` [Example 8, 8′-Methyl-6′-({(7S)-7-[(1R,4R)-2-oxa-5-azabicyclo[2.2.1]hept-5-ylcarbonyl]-5,6,7,8-tetrahydro[1]benzothieno[2,3-d]pyrimidin-4-yl}amino)-2′H-spiro[cyclohexane-1,3′-imidazo[1,5-a]pyridine]-1′,5′-dione] the IC50 was 0.6 nM.
With `Cc1cc(Nc2ncnc3sc4c(c23)CC[C@H](C(=O)N2CC[C@H](N(C)C)C2)C4)c(=O)n2c1C(=O)NC21CCCCC1` [Example 9, 6′-{[(7S)-7-{[(3S)-3-(Dimethylamino)pyrrolidin-1-yl]carbonyl}-5,6,7,8-tetrahydro[1]benzothieno[2,3-d]pyrimidin-4-yl]amino}-8′-methyl-2′H-spiro[cyclohexane-1,3′-imidazo[1,5-a]pyridine]-1′,5′-dione] the IC50 was 0.1 nM.
In the case of `Cc1cc(Nc2ncnc3sc4c(c23)CC[C@H](C(=O)N2CC(N)C2)C4)c(=O)n2c1C(=O)NC21CCCCC1` [Example 11, 6′-({(7S)-7-[(3-Aminoazetidin-1-yl)carbonyl]-5,6,7,8-tetrahydro[1]benzothieno[2,3-d]pyrimidin-4-yl}amino)-8′-methyl-2′H-spiro[cyclohexane-1,3′-imidazo[1,5-a]pyridine]-1′,5′-dione], the IC50 is reported as 0.5 nM.
Compound `Cc1cc(Nc2ncnc3sc4c(c23)CC[C@H](C(=O)N(C)CCN(C)C)C4)c(=O)n2c1C(=O)NC21CCCCC1` [Example 12, (7S)—N-[2-(Dimethylamino)ethyl]-N-methyl-4-[(8′-methyl-1′,5′-dioxo-1′,5′-dihydro-2′H-spiro[cyclohexane-1,3′-imidazo[1,5-a]pyridin]-6′-yl)amino]-5,6,7,8-tetrahydro[1]benzothieno[2,3-d]pyrimidine-7-carboxamide] has an IC50 of 0.2 nM.
`Cc1cc(Nc2ncnc3sc4c(c23)CC[C@H](C(=O)N2C3CCC2CC(=O)C3)C4)c(=O)n2c1C(=O)NC21CCCCC1` [Example 13, 8′-Methyl-6′-({(7S)-7-[(3-oxo-8-azabicyclo[3.2.1]oct-8-yl)carbonyl]-5,6,7,8-tetrahydro[1]benzothieno[2,3-d]pyrimidin-4-yl}amino)-2′H-spiro[cyclohexane-1,3′-imidazo[1,5-a]pyridine]-1′,5′-dione] was tested, and the IC50 was 0.4 nM.
`Cc1cc(Nc2ncnc3sc4c(c23)CC[C@H](C(=O)N2CCN(C)[C@@H](C)C2)C4)c(=O)n2c1C(=O)NC21CCCCC1` [Example 14, 6′-{[(7S)-7-{[(3S)-3,4-Dimethylpiperazin-1-yl]carbonyl}-5,6,7,8-tetrahydro[1]benzothieno[2,3-d]pyrimidin-4-yl]amino}-8′-methyl-2′H-spiro[cyclohexane-1,3′-imidazo[1,5-a]pyridine]-1′,5′-dione] showed an IC50 of 0.8 nM.
`Cc1cc(Nc2ncnc3sc4c(c23)CC[C@H](C(=O)O)C4)c(=O)n2c1C(=O)NC2(C)C` [Example 15, (7S)-4-[(3,3,8-Trimethyl-1,5-dioxo-1,2,3,5-tetrahydroimidazo[1,5-a]pyridin-6-yl)amino]-5,6,7,8-tetrahydro[1]benzothieno[2,3-d]pyrimidine-7-carboxylic acid] showed an IC50 of 15.6 nM.
Work on `Cc1cc(Nc2ncnc3sc4c(c23)CC[C@H](C(=O)O)C4)c(=O)n2c1C(=O)NC21CCC1` [Example 16, (7S)-4-[(8′-Methyl-1′,5′-dioxo-1′,5′-dihydro-2′H-spiro[cyclobutane-1,3′-imidazo[1,5-a]pyridin]-6′-yl)amino]-5,6,7,8-tetrahydro[1]benzothieno[2,3-d]pyrimidine-7-carboxylic acid] yielded an IC50 of 3.9 nM.
For `Cc1cc(Nc2ncnc3sc4c(c23)CC[C@H](C(N)=O)C4)c(=O)n2c1C(=O)NC21CCCCC1` [Example 17, (7S)-4-[(8′-Methyl-1′,5′-dioxo-1′,5′-dihydro-2′H-spiro[cyclohexane-1,3′-imidazo[1,5-a]pyridin]-6′-yl)amino]-5,6,7,8-tetrahydro[1]benzothieno[2,3-d]pyrimidine-7-carboxamide], the IC50 was 0.5 nM.
`Cc1cc(Nc2ncnc3sc4c(c23)CC[C@H](C(=O)N2CCOC[C@H]2C)C4)c(=O)n2c1C(=O)NC21CCCCC1` [Example 18, 8′-methyl-6′-{[(7S)-7-{[(3R)-3-methylmorpholin-4-yl]carbonyl}-5,6,7,8-tetrahydro[1]benzothieno[2,3-d]pyrimidin-4-yl]amino}-2′H-spiro[cyclohexane-1,3′-imidazo[1,5-a]pyridine]-1′,5′-dione] gave an IC50 of 0.3 nM.
For `Cc1cc(Nc2ncnc3sc4c(c23)CC[C@H](C(=O)N2CC(N(C)C)C2)C4)c(=O)n2c1C(=O)NC21CCCCC1` [Example 19, 6′-{[(7S)-7-{[3-(Dimethylamino)azetidin-1-yl]carbonyl}-5,6,7,8-tetrahydro[1]benzothieno[2,3-d]pyrimidin-4-yl]amino}-8′-methyl-2′H-spiro[cyclohexane-1,3′-imidazo[1,5-a]pyridine]-1′,5′-dione], the IC50 was 0.9 nM.

Source: patent US20190388425A1, “SUBSTITUTED IMIDAZOPYRIDINPYRIMIDINES” (Bayer Pharma Aktiengesellschaft, priority 2017, published 2019)
